Test results from patent US6455550B1, “N-alkanoylphenylalanine derivatives” (Hoffmann-La Roche Inc., priority 1997, dated 2002).
Like-named read-outs stand apart in the source and are kept apart here.

Tests used:
[1] = target: T1, cell-surface VLA-4 (α4β1 integrin) on Ramos cells binding to immobilized VCAM-1 (Homo sapiens, UniProt P05556+P13612); test: Ramos (VLA-4)/VCAM-1 Cell-Based Screening Assay (cell adhesion); settings: Calcein-AM labeled Ramos cells, VCAM-1 coated plates, 45 min at room temperature
T1 construct: Ramos cells bearing cell-surface VLA-4; endogenous in cells; host or cells: Ramos cells (VLA-4); VCAM-1 purified from CHO cell culture media
T1 sequence (P13612 34-1032): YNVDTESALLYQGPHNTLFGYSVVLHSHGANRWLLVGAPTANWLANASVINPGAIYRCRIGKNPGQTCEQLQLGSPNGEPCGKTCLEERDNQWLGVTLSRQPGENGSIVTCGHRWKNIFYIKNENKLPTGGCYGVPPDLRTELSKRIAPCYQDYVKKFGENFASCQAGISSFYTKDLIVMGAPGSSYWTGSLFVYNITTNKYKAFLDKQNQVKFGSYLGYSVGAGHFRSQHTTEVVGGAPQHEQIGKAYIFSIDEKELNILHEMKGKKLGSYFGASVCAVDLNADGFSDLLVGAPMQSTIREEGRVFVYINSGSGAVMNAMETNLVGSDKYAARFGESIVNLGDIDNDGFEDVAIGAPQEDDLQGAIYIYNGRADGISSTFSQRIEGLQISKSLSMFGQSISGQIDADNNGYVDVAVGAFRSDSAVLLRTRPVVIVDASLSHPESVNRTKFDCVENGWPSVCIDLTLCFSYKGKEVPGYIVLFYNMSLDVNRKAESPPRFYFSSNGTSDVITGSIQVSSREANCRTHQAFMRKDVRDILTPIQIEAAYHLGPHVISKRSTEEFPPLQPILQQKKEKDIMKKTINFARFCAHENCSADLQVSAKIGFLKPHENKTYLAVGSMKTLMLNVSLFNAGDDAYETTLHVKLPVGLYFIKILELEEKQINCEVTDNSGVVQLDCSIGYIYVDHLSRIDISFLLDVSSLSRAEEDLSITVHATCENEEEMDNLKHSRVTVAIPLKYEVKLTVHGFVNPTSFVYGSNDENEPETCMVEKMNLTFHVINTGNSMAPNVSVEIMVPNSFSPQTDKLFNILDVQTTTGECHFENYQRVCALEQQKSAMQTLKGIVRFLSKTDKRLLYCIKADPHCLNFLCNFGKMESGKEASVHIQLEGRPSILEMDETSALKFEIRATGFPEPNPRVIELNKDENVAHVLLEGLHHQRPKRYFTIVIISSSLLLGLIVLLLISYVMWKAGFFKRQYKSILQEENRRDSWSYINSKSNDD
T1 sequence (P05556 21-798): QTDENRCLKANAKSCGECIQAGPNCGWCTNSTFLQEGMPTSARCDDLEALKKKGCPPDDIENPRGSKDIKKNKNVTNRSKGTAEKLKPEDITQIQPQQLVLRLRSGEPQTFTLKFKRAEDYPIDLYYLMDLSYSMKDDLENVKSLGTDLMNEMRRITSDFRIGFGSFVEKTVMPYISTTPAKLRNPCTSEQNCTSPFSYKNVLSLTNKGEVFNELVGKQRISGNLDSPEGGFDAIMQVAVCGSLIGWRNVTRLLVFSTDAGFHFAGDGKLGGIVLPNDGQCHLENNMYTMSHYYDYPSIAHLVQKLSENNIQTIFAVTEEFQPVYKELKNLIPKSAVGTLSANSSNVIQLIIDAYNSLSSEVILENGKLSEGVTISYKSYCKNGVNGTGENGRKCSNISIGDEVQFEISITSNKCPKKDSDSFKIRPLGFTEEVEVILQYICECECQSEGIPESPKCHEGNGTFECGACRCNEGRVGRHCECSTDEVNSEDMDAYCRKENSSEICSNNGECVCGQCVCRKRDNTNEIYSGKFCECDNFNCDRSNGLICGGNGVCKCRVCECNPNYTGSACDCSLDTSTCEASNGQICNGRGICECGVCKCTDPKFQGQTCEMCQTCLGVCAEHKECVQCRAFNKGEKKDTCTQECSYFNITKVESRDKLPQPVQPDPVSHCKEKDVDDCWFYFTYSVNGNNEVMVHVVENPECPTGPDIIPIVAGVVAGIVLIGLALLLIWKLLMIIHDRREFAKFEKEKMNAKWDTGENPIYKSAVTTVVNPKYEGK
Source text: Calcein-AM was purchased from Molecular Probes Inc.
VLA-4 (α4β1 integrin) antagonist activity, defined as ability to compete with cell-surface VLA-4 for binding to immobilized VCAM-1, was quantitated using a Ramos-VCAM-1 cell adhesion assay. Ramos cells bearing cell-surface VLA-4, were labeled with a fluorescent dye (Calcein-AM) and allowed to bind VCAM-1 in the presence or absence of test compounds.
Initially, this entailed coating 96 well plates (Nunc Maxisorp) with recombinant human VCAM-1 (100 ng in 100 μl PBS), sealing each plate and allowing the plates to stand at 4° C for Å18 hr. The VCAM-coated plates were subsequently washed twice with 0.05% Tween-20 in PBS, and then blocked for 1hr (room temperature) with 200 μl of Blocking Buffer (1% BSA/0.02% thimerosal) to reduce non-specific binding. Following the incubation with Blocking Buffer, plates were inverted, blotted and the remaining buffer aspirated. Each plate was then washed with 300 μl PBS, inverted and the remaining PBS aspirated.
Test compounds were dissolved in 100% DMSO and then diluted 1:25 in VCAM Cell Adhesion Assay Buffer (4 mM CaCl2, 4 mM MgCl2 in 50 mM TRIS-HCl, pH 7.5) (final DMSO=4%). […] 100 μl/well of each dilution was added to the VCAM-coated plates, followed by 100 μl of Ramos cells (200,000 cells/well in 1% BSA/PBS). […] Plates were inverted to remove non-adherent cells, blotted and 300 μl/well PBS added. Plates were again inverted, blotted and the remaining buffer gently aspirated. 100 μl Lysis Buffer (0.1% SDS in 50 mM TRIS-HCl, pH 8.5) was added to each well and agitated for 2 min on a rotary shaking platform.

[2] = target: T2, VLA-4 (α4β1 integrin) binding to immobilized VCAM-1 (Homo sapiens, UniProt P05556+P13612); test: VLA-4/VCAM-1 Screening Assay (solid-phase, dual antibody ELISA); settings: Ramos cell-derived VLA-4, recombinant human VCAM-1 coated plates, 2 hr at 37° C.
T2 construct: followed by 10 μl of Ramos cell-derived VLA-4; endogenous in cells; host or cells: Ramos cells (VLA-4 preparation derived from the cells)
T2 sequence (P13612 34-1032): as the sequence (P13612 34-1032) above
T2 sequence (P05556 21-798): as the sequence (P05556 21-798) above
Procedure, shortened: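 Recombinant human VCAM-1 is coated onto plates and Ramos cell-derived VLA-4 is added with compound (final DMSO 5%) in Tris buffer pH 7.4 with 1 mM MnCl2 and 1 mg/mL BSA, 2 hr at 37° C. Bound VLA-4 is detected by anti-β1 antibody, HRP anti-mouse IgG and K-Blue colorimetry. Results are % inhibition of total binding.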

[3] = IC50 in Ramos Cell Based Assay (nM)
[4] = read-out: IC50 in Ramos Cell Based Assay

| melting point [°C] | IC50 ([2]; read-out: IC50) [nM] | Compound | IC50 [1, 3] [nM] | IC50 ([2]; IC50 nM) [nM] | IC50 [1, 4] [nM] |
| --- | --- | --- | --- | --- | --- |
| 136 to 140 |  | COCCC1(C(=O)N[C@@H](Cc2ccc(NC(=O)c3c(Cl)cccc3Cl)cc2)C(=O)O)CCCC1 [Example 398, 4-[[(2,6-Dichlorophenyl)carbonyl]amino]-N-[[1-(2-methoxyethyl)cyclopentyl]carbonyl]-L-phenylalanine] |  |  |  |
| 136 to 140 |  | COc1ccc(CC2(C(=O)N[C@@H](Cc3ccc(NC(=O)c4c(Cl)cccc4Cl)cc3)C(=O)O)CCCCC2)cc1 [Example 47, 4-[[(2,6-Dichlorophenyl)carbonyl]amino]-N-[[1-(4-methoxyphenylmethyl)cyclohexyl]carbonyl]-L-phenylalanine] |  |  |  |
|  |  | CCCCC1(C(=O)N[C@@H](Cc2ccc(NC(=O)c3c(Cl)cccc3Cl)cc2)C(=O)O)CCCC1 [Example 270] | 150 | 1.1 |  |
|  |  | CSCCC1(C(=O)N[C@@H](Cc2ccc(NC(=O)c3c(Cl)cccc3Cl)cc2)C(=O)O)CCCC1 [Example 249] | 62 | 0.29 |  |
|  |  | C=CCCC1(C(=O)N[C@@H](Cc2ccc(NC(=O)c3c(Cl)cccc3Cl)cc2)C(=O)O)CCCC1 [Example 271] |  | 0.55 | 67 |
|  |  | O=C(Nc1ccc(C[C@H](NC(=O)C2(CCCCO)CCCC2)C(=O)O)cc1)c1c(Cl)cccc1Cl [Example 255] | 27 | 0.5 |  |
|  |  | O=C(NCCC1(C(=O)N[C@@H](Cc2ccc(NC(=O)c3c(Cl)cccc3Cl)cc2)C(=O)O)CCCC1)c1cccc(C(F)(F)F)c1 [Example 258] | 1030 | 14 |  |
|  |  | O=C(Nc1ccc(C[C@H](NC(=O)C2(CCN3CCOCC3)CCCC2)C(=O)O)cc1)c1c(Cl)cccc1Cl [Example 256] | 151 | 2.4 |  |
| 143 to 146 | 1.65 | COCCC1(C(=O)N[C@@H](Cc2ccc(N3C(=O)c4ccc(C#N)cc4C3=O)cc2)C(=O)O)CCCC1 [Example 371, 4-(5-Cyano-1,3-dioxo-2H-isoindol-2-yl)-N-[[1-(2-methoxyethyl)cyclopentyl]carbonyl]-L-phenylalanine] |  |  |  |
|  | 2.4 | COC(=O)CCC(=O)NCCC1(C(=O)N[C@@H](Cc2ccc(NC(=O)c3c(Cl)cccc3Cl)cc2)C(=O)O)CCCC1 [Example 163] |  |  | 85 |
|  | 1.2 | COCC(=O)NCCC1(C(=O)N[C@@H](Cc2ccc(NC(=O)c3c(Cl)cccc3Cl)cc2)C(=O)O)CCCC1 [Example 162] |  |  | 23 |
| 172 to 175 |  | COCCC1(C(=O)N[C@@H](Cc2ccc(NC(=O)c3cc(C#N)ccc3Cl)cc2)C(=O)OC)CCCC1 [Example 362, 4-[(2-Chloro-5-cyanophenylcarbonyl)amino]-N-[[1-(2-methoxyethyl)cyclopentyl]carbonyl]-L-phenylalanine Methyl Ester] |  |  |  |
|  | 0.69 | COc1ccc(CC2(C(=O)N[C@@H](Cc3ccc(NC(=O)c4c(Cl)cccc4Cl)cc3)C(=O)O)CCCC2)cc1 [Example 95] |  |  | 34.5 |
|  | 0.94 | Cn1nnnc1-c1cccc(CC2(C(=O)N[C@@H](Cc3ccc(NC(=O)c4c(Cl)cccc4Cl)cc3)C(=O)O)CCC2)c1 [Example 56] |  |  | 31.5 |
| 85 to 87 |  | COCCC1(C(=O)N[C@@H](Cc2ccc(NC(=O)c3c(Cl)cccc3Cl)cc2)C(=O)OC)CCCC1 [Example 397, 4-[[(2,6-Dichlorophenyl)carbonyl]amino]-N-[[1-(2-methoxyethyl)cyclopentyl]carbonyl]-L-phenylalanine Methyl Ester] |  |  |  |

| Compound | melting point [°C] | IC50 ([2]; read-out: IC50) [nM] | IC50 [1, 3] [nM] | IC50 ([2]; IC50 nM) [nM] | IC50 [1, 4] [nM] |
| --- | --- | --- | --- | --- | --- |
| C[S+]([O-])CCC1(C(=O)N[C@@H](Cc2ccc(NC(=O)c3c(Cl)cccc3Cl)cc2)C(=O)O)CCCC1 (stereo partly drawn) [Example 357] | 255 to 258 |  | 25 |  |  |
| CS(=O)(=O)CCC1(C(=O)N[C@@H](Cc2ccc(NC(=O)c3c(Cl)cccc3Cl)cc2)C(=O)O)CCCC1 [Example 358] | 184 to 187 |  | 75 |  |  |
| COCCC1(C(=O)N[C@@H](Cc2ccc(NC(=O)c3cc(C#N)ccc3Cl)cc2)C(=O)O)CCCC1 [Example 363, 4-[(2-Chloro-5-cyanophenylcarbonyl)amino]-N-[[1-(2-methoxyethyl)cyclopentyl]carbonyl]-L-phenylalanine] | 169 to 172 | 0.64 |  |  | 11 |
| NCC(=O)NCCC1(C(=O)N[C@@H](Cc2ccc(NC(=O)c3c(Cl)cccc3Cl)cc2)C(=O)O)CCCC1 [Example 217, 4-[[(2,6-dichlorophenyl)carbonyl]amino]-N-[[1-[2-[(2-amino-1-oxoethyl)amino]ethyl]yclopentyl]carbonyl]-L-phenylalanine] |  | 2 |  |  | 211 |
| COC(=O)NCCC1(C(=O)N[C@@H](Cc2ccc(NC(=O)c3c(Cl)cccc3Cl)cc2)C(=O)O)CCCC1 [Example 193] |  | 0.55 |  |  | 40 |
| CC(C)(C)OC(=O)NCC(=O)NCCC1(C(=O)N[C@@H](Cc2ccc(NC(=O)c3c(Cl)cccc3Cl)cc2)C(=O)O)CCCC1 [Example 216, 4-[[(2,6-dichlorophenyl)carbonyl]amino]-N-[[1-[2-[[2-[[(1,1-dimethylethoxy)carbonyl]amino]-1-oxoethyl]amino]ethyl]cyclopentyl]carbonyl]-L-phenylalanine] |  | 2.9 |  |  | 356 |
